For 19 compounds, IC50 results are on record in patent US11072634B2, “Inhibitors of transglutaminases” (Zedira GmbH, priority 2016, dated 2021).

pIC50: −log10 of the molar value.

This experiment addresses T1, recombinant human tissue transglutaminase (rhTG2) (Homo sapiens, UniProt P21980).
T1 construct: purchased Zedira 1022 (so in the source); T022)
T1 sequence (P21980 1-687): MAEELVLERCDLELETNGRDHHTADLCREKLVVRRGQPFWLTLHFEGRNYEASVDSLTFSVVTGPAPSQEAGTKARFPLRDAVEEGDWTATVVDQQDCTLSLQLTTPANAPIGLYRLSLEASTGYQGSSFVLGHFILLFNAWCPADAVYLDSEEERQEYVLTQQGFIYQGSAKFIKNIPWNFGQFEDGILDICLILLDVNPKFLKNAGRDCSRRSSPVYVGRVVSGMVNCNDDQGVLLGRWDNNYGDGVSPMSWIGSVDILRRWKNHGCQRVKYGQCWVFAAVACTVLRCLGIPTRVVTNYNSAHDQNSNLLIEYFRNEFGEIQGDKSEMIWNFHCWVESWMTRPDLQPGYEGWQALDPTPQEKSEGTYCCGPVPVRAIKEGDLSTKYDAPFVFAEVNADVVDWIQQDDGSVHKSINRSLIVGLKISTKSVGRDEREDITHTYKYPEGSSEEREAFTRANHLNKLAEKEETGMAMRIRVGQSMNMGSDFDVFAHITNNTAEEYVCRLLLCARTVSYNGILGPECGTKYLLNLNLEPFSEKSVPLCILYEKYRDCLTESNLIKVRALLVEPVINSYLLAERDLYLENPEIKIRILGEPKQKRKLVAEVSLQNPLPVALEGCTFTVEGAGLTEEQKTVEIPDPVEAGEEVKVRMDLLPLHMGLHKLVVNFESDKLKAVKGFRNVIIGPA
The experiment is described as follows: Inhibition of rec. human tissue transglutaminase (fluorescence, Abz-APE(CAD-DNP)QEA-OH). It is filed as biochemical. Particulars: Table 2, TG2 inhibitors. On the procedure: Method for Inhibition Studies of Rec. Human Tissue Transglutaminase (rhTG2)
250 μg lyophilized His-tagged recombinant human tissue transglutaminase (His6-rhTG2, Zedira product 1022) is reconstituted in H2O (volume depends on original volume before lyophilization) resulting in a buffer containing 10 mM Tris-HCl, 150 mM NaCl, 1 mM EDTA, 5 mM DTT, 189 mg/ml maltodextrin, pH=8.1. The rhTG2 stock solution is diluted in buffer (50 mM Tris-HCl, 7.5 mM CaCl2, 150 mM NaCl, pH=7.4) to give a working solution of 100 U/ml (based on the amine-incorporation activity measured using T036, described below).
A 10 mM inhibitor stock solution is prepared in DMSO, and from this stock solution a serial 1:2-fold dilution series is prepared, also in DMSO. Each of these initial dilutions is subsequently diluted 1:50-fold with buffer (50 mM Tris-HCl, 7.5 mM CaCl2, 150 mM NaCl, pH=7.4) to yield the final working dilutions containing 2% (v/v) DMSO. 15 μl of inhibitor working dilution are added per well of a 96 well microtiter plate. As control, 15 μl of a 2% (v/v) DMSO solution prepared using the buffer mentioned above are added per well.
600 μl of His6-rhTG2 working solution are added to 11.4 ml assay buffer (50 mM Iris-HCl, 7.5 mM CaCl2, 150 mM NaCl, 5 mM DTI, 13.4 mM glycine methylester, 50 μM Abz-APE(CAD-DNP)QEA-OH, (Zedira product A102; patent No.: EP 1781807B1), pH=7.4). From this master-mix solution, 285 μl are added per well containing the inhibitor. Increase in fluorescence is measured using λex=313 nm and λem=418 nm at 37° C. for 20 min. A slope of the increase in fluorescence between 10 and 20 min is calculated for determination of the IC50 value (inhibitor concentration at which 50% of the initial TG2 activity is blocked).
Analysis of enzymatic activity is performed by calculation of the slope of an increase in fluorescence intensity. IC50 values are calculated by plotting the enzymatic activity (as percentage from control containing 2% DMSO instead of inhibitor) against the inhibitor concentration. IC50 is defined as the inhibitor concentration blocking 50%) of initial enzyme activity.
As for `CCC(CC)CNC(=O)Cn1cccc(NC(=O)[C@H](CCCCC(=O)C(=O)NC)NC(=O)c2cncn2C)c1=O` [Compound E73, (S)—N1-(1-(2-(2-ethylbutylamino)-2-oxoethyl)-2-oxo-1,2-dihydropyridin-3-yl)-N8-methyl-2-(1-methyl-1H-imidazole-5-carboxamido)-7-oxooctanediamide], the pIC50 (in general, −log10 of the IC50, conventionally taken in molar units) is 5.20.

On to `CCC(CC)CNC(=O)Cn1cccc(NC(=O)[C@H](CCC(=O)C(=O)NC(C)(C)C)NC(=O)c2cncn2C)c1=O` [Compound E21, (S)—N1-tert-butyl-N6-(1-(2-(2-ethylbutylamino)-2-oxoethyl)-2-oxo-1,2-dihydropyridin-3-yl)-5-(1-methyl-1H-imidazole-5-carboxamido)-2-oxonexanediamide], for which the pIC50 is 5.30.

In the case of `CCC(CC)CNC(=O)Cn1cccc(NC(=O)[C@H](CCC(=O)C(=O)NC)NC(=O)[C@@H]2CC(=O)CN2)c1=O` [Compound E60, (S)—N1-(1-(2-(2-ethylbutylamino)-2-oxoethyl)-2-oxo-1,2-dihydropyridin-3-yl)-N6-methyl-5-oxo-2-((S)-4-oxopyrrolidine-2-carboxamido)hexanediamide], the pIC50 is 7.22.

`CNC(=O)C(=O)CC[C@H](NC(=O)c1cncn1C)C(=O)Nc1cccn(CC(=O)NCN(C)C)c1=O` [Compound E55, (S)-N1-(1-(2-((dimethylamino)methylamino)-2-oxoethyl)-2-oxo-1,2-dihydropyridin-3-yl)-N6-methyl-2-(1-methyl-1H-imidazole-5-carboxamido)-5-oxohexanediamide]: the pIC50 is 6.70.

For `CCC(CC)CNC(=O)Cn1cccc(NC(=O)[C@H](CCC(=O)C(=O)OCCOC)NC(=O)c2cncn2C)c1=O` [Compound E78, (S)-2-methoxyethyl 6-(1-(2-(2-ethylbutylamino)-2-oxoethyl)-2-oxo-1,2-dihydropyridin-3-ylamino)-5-(1-methyl-1H-imidazole-5-carboxamido)-2,6-dioxohexanoate], the pIC50 is 6.40.

As to `CCC(CC)CNC(=O)Cn1cccc(NC(=O)[C@H](CCC(=O)C(=O)NCc2ccccc2)NC(=O)c2cncn2C)c1=O` [Compound E20, (S)—N1-benzyl-N6-(1-(2-(2-ethylbutylamino)-2-oxoethyl)-2-oxo-1,2-dihydropyridin-3-yl)-5-(1-methyl-1H-imidazole-5-carboxamido)-2-oxonexanediamide], the negative-log IC50 (pIC50) is 6.22.

Consider `CNC(=O)C(=O)CCC[C@H](NC(=O)c1cncn1C)C(=O)Nc1ccc(S(=O)(=O)N2CCN(C)CC2)cc1` [Compound E72, (S)—N1-methyl-6-(1-methyl-1H-imidazole-5-carboxamido)-N7-(4-(4-methylpiperazin-1-ylsulfonyl)phenyl)-2-oxoheptanediamide], for which the negative logarithm of the IC50 (pIC50) was 5.20.

Turning to `CCOC(=O)Cn1cccc(NC(=O)[C@H](CCC(=O)C(=O)NC)NC(=O)c2cncn2C)c1=O` [Compound E52, (S)-ethyl 2-(3-(2-(1-methyl-1H-imidazole-5-carboxamido)-6-(methylamino)-5,6-dioxohexanamido)-2-oxopyridin-1(2H)-yl)acetate], the pIC50 was 6.30.

Take `CCC(CC)CNC(=O)Cn1cccc(NC(=O)[C@H](CCC(=O)C(=O)C2CC2)NC(=O)c2cncn2C)c1=O` [Compound E75, (S)—N-(6-cyclopropyl-1-(1-(2-(2-ethylbutylamino)-2-oxoethyl)-2-oxo-1,2-dihydropyridin-3-ylamino)-1,5,6-trioxohexan-2-yl)-1-methyl-1H-imidazole-5-carboxamide]: the pIC50 is 6.87.

On to `CCNC(=O)C(=O)CC[C@H](NC(=O)c1cncn1C)C(=O)Nc1cccn(CC(=O)NCC(CC)CC)c1=O` [Compound E17, (S)—N1-ethyl-N6-(1-(2-(2-ethylbutylamino)-2-oxoethyl)-2-oxo-1,2-dihydropyridin-3-yl)-5-(1-methyl-1H-imidazole-5-carboxamido)-2-oxonexanediamide], for which the negative logarithm of the IC50 (pIC50) is 7.00.

`CCC(CC)CNC(=O)Cn1cccc(NC(=O)[C@H](CCCC(=O)C(=O)NC)NC(=O)c2cncn2C)c1=O` [Compound E71, (S)—N1-(1-(2-(2-ethylbutylamino)-2-oxoethyl)-2-oxo-1,2-dihydropyridin-3-yl)-N7-methyl-2-(1-methyl-1H-imidazole-5-carboxamido)-6-oxoheptanediamide]: the pIC50 was 5.22.

As to `CCC(CC)CNC(=O)Cn1cccc(NC(=O)[C@H](CCC(=O)C(C)=O)NC(=O)c2cncn2C)c1=O` [Compound E74, (S)—N-(1-(1-(2-(2-ethylbutylamino)-2-oxoethyl)-2-oxo-1,2-dihydropyridin-3-ylamino)-1,5,6-trioxoheptan-2-yl)-1-methyl-1H-imidazole-5-carboxamide], the pIC50 is 6.90.

`CCC(CC)CNC(=O)Cn1cc(Br)cc(NC(=O)[C@H](CCC(=O)C(=O)NC)NC(=O)c2cncn2C)c1=O` [Compound E46, (S)—N1-(5-bromo-1-(2-(2-ethylbutylamino)-2-oxoethyl)-2-oxo-1,2-dihydropyridin-3-yl)-N6-methyl-2-(1-methyl-1H-imidazole-5-carboxamido)-5-oxohexanediamide]: the negative logarithm of the IC50 (pIC50) was 7.02.

Regarding `CCC(CC)CNC(=O)Cn1cccc(NC(=O)[C@H](CCC(=O)C(=O)NOCC2CCCC2)NC(=O)c2cncn2C)c1=O` [Compound E79, (S)—N1-(cyclopentylmethoxy)-N6-(1-(2-(2-ethylbutylamino)-2-oxoethyl)-2-oxo-1,2-di-hydropyridin-3-yl)-5-(1-methyl-1H-imidazole-5-carboxamido)-2-oxohexanediamide], the pIC50 was 6.28.

With `CCC(CC)CNC(=O)Cn1cc(Cl)cc(NC(=O)[C@H](CCC(=O)C(=O)NC)NC(=O)c2cncn2C)c1=O` [Compound E45, (S)—N1-(5-chloro-1-(2-(2-ethylbutylamino)-2-oxoethyl)-2-oxo-1,2-dihydropyridin-yl)-N6-methyl-2-(1-methyl-1H-imidazole-5-carboxamido)-5-oxohexanediamide], the pIC50 is 7.12.

For the compound `CCC(CC)CNC(=O)Cn1cccc(NC(=O)[C@H](CCC(=O)C(=O)CC(C)C)NC(=O)c2cncn2C)c1=O` [Compound E80, (S)—N-(1-(1-(2-(2-ethylbutylamino)-2-oxoethyl)-2-oxo-1,2-dihydropyridin-3-ylamino)-8-methyl-1,5,6-trioxononan-2-yl)-1-methyl-1H-imidazole-5-carboxamide], the pIC50 was 6.87.

On to `CCC(CC)CNC(=O)Cn1cccc(NC(=O)[C@H](CCC(=O)C(=O)NC)NC(=O)Nc2ccccc2)c1=O` [Compound E69, (S)—N1-(1-(2-(2-ethylbutylamino)-2-oxoethyl)-2-oxo-1,2-dihydropyridin-3-yl)-N6-methyl-5-oxo-2-(3-phenylureido)hexanediamide], for which the pIC50 is 6.56.

As for `CCC(CC)CNC(=O)Cn1cccc(NC(=O)[C@H](CCC(=O)C(=O)NC2CC2)NC(=O)c2cncn2C)c1=O` [Compound E19, (S)—N1-cyclopropyl-N6-(1-(2-(2-ethylbutylamino)-2-oxoethyl)-2-oxo-1,2-dihydropyridin-3-yl)-5-(1-methyl-1H-imidazole-5-carboxamido)-2-oxonexanediamide], the pIC50 is 6.46.

Turning to `CCC(CC)CNC(=O)Cn1cccc(NC(=O)[C@H](CCC(=O)C(=O)NC)NC(=S)Nc2ccccc2)c1=O` [Compound E70, (S)—N1-(1-(2-(2-ethylbutylamino)-2-oxoethyl)-2-oxo-1,2-dihydropyridin-3-yl)-N6-methyl-5-oxo-2-(3-phenylthioureido)hexanediamide], the pIC50 is 6.58.
